Measured values reported in patent US20210244028A1, “TREATMENT FOR REMOVING ECTOPARASITES FROM FISH” (priority 2018, published 2021).

What was measured:
farmed Atlantic salmon = assay: Observation of fish during field well boat treatment (Example 4); assay type: in vivo; conditions: 20 ppm, 60 minutes
Protocol: (§1) The effectiveness of imidacloprid against pre-adult and adult stages of L. salmonis and Caligus sp. infections on farmed Atlantic salmon was investigated by performing pre- and post-treatment sea lice counts on salmon undergoing a treatment with imidacloprid. This trial was conducted at a commercial salmon farm in Norway. The salmon were pumped onto a well boat and were exposed to 20 ppm imidacloprid for 60 minutes. The average weight of the salmon was 3.5 kg and the average number of salmon per pen was 180,000. 30 fish per pen were assessed for L. salmonis and Caligus sp., and the number of each L. salmonis life stage found was recorded. This was performed within 24 hours prior to treatment, and within 24 hours after treatment.
(§2) The numbers of sea lice observed per fish for this trial for each of the four tested pens according to sea lice life cycle state, pre- or post-administration of active are presented in Table 5.

[1] = test system: pre-adult and adult sea lice; assay: Timescale of effect on sea lice on killed salmon suspended in treatment water (Example 5)
Protocol: To determine the timescale of the effect of imidacloprid, salmon infected with pre-adult and adult sea lice were removed from a stock tank and killed using a sharp blow to the head.
For fish exposed to 0 ppm imidacloprid (negative controls), observations were made for 60 minutes. […] Three fish per treatment group were tested.
Observations on the time at which lice left the host, and the sex and stage of the sea louse was noted. Any lice that left the host were transferred to clean sea water immediately. Furthermore, any lice remaining on the host at the end of the exposure period were removed from the host and transferred to clean sea water.
Lice were observed both shortly after and approximately 2 hours after the end of the exposure period.
The ratio of male to female sea lice was around 50:50. The water temperature was around 12° C.

L. salmonis = assay: Field well boat treatment, pre- vs post-treatment sea lice counts (Example 4); assay type: in vivo; conditions: 20 ppm, 60 minutes, 30 fish per pen, within 24 hours after treatment, pens A-D
Protocol: as §1
These assessments were made on four pens of salmon in total. Prior to treatment, fish were crowded within the pen to enable them to be pumped into the well boat, which is where the pre-treatment sea lice assessments were conducted. The post-treatment sea lice assessments were made by removing fish from the outflow pipe on the well boat.
At all time points, 3 fish were removed and placed into an anaesthetic bath. This was repeated 10 times until 30 fish had been assessed.
as §2

Lepeophtheirus salmonis = assay: Relative efficacy study, 60 min static bucket treatment of infected salmon (Example 2.2); assay type: in vivo
Protocol: 120 salmon fish (Salmo salar) were divided across five flow-through treatment tanks and acclimated for 24 hours prior to parasite challenge.
Egg strings removed from ovigerous female Lepeophtheirus salmonis were collected and cultured until infective copepodids were produced. The copepodids were then evenly distributed into five bottles containing sea water and stored at ˜10° C. overnight. In preparation for the challenge, water flows in the treatment tanks were stopped and light levels reduced. 650±20 copepodids (˜27 per host) were added to the static water and the tanks maintained in total darkness for 7 hours after which light levels were raised and the water flow resumed.
Fish were randomly divided into ten groups of ten fish and held in static ‘treatment buckets’ containing 30 L of water and high aeration as shown in Table 3. […]
Experimental animals were monitored closely for adverse reactions and the status of the parasite infection. Where possible the time at which all parasites were thought to have detached was recorded. As treatments were performed in static systems, temperature and dissolved oxygen were regularly monitored throughout the procedure and aeration adjusted as required.
After the treatment period, the test animals were removed from the treatment solution and humanly euthanised. Each fish was weighed, measured, and its individual parasite burden assessed. The number of parasites in the treatment solution was also counted and qualitatively assessed for: sex and maturity, apparent signs of neonicotinoid poisoning, and/or potential recovery.
Logistic regression was used to compare parasite clearance after treatment with each of the concentration. Logistic regression analyses were performed using the glm function in R v.2.13.0 and assumed a binomial or quasi-binomial error distribution (determined through the comparison of the null deviance with the degrees of freedom).

## O=[N+]([O-])NC1=NCCN1Cc1ccc(Cl)nc1 [imidacloprid]
Farmed Atlantic salmon
  Fish behaviour observed throughout treatment: no adverse behaviours seen
[1]; 20 mg/L, of 49 lice exposed
  Lice considered dead at 30 minutes post-exposure: two
[1]; 50 ppm
  Lice considered dead at 2 hours p.e.: 14
[1]; 50 ppm, of 21 lice exposed
  Lice considered dead at 30 minutes: four
[1]; 100 ppm
  Lice considered dead at 2 hours p.e.: 17/28
[1]; 100 ppm, of 28 lice exposed
  Lice considered dead at the end of the exposure period: four
[1]; 200 ppm, of 26 lice exposed
  Lice considered dead 2 hours post-exposure: Six
  Lice considered dead at the end of the exposure period: four
[1]; 500 ppm
  Lice considered dead 30 minutes p.e.: Six out of 20
  Lice considered dead at 2 hours p.e.: 15/20
[1]; 500 ppm, dead host, around 12° C.
  Lice that left the host within the first 9 minutes: around 70%
[1]; between 20 and 200 ppm, dead host, around 12° C.
  Lice that left the host within the first 15 minutes: around 50%
L. salmonis
  Post-treatment sea lice count, Adult Female: 0.0 sea lice per fish
  Post-treatment sea lice count, Adult Male: 0.0 sea lice per fish
  Post-treatment sea lice count, Gravid Female: 0.0 sea lice per fish
  Post-treatment sea lice count, Pre-Adult Female: 0.0 sea lice per fish
  Post-treatment sea lice count, Pre-Adult Male: 0.0 sea lice per fish
  Post-treatment sea lice count, Total: 0.0 sea lice per fish
Lepeophtheirus salmonis; 10 mg/l
  Parasites remained attached to their hosts at the sampling point: 20%
Lepeophtheirus salmonis; 25 mg/l
  Parasites remained attached to their hosts at the sampling point: 3%
Lepeophtheirus salmonis; 15 and 20 mg/l
  Parasites remained attached to their hosts at the sampling point: 8%
